Experimental data as given in US8207314B2, “Tumor antigens for prevention and/or treatment of cancer” (Sanofi Pasteur Limited, priority 2003, dated 2012).

Legend:
[1] = system: Human PBMC from an HLA-A2.1 positive donor; test: IFN-γ ELISPOT of human T cells activated with BFY3 peptide pools and deconvolution to single peptides; assay type: cell-based; settings: BFY3 nonamer peptides; listing = result
From the text: Human PBMC from an HLA-A2.1 positive donor designated AP31 were activated with autologous dendritic cells pulsed with different pools of 9-mer peptides from the BFY3 antigen (see Table I for list). The activated T cells were re-stimulated after 12 days with activated autologous CD40-ligand-activated B cells pulsed with the same respective peptide pools for another 8 to 10 days. This secondary activation was repeated 2 more time for a total of 4 stimulations. The activated T cells were isolated after the 4th stimulation and subjected to ELISPOT analysis for human IFN-γ production against their respective BFY3 peptide pools as shown. The blue bars show reactivity against the BFY3 peptide pools and the red bars are for an HLA-A2.1-binding HIV peptide as a negative control. Standard deviations are indicated. The experiment was repeated 2 times on activated T cells from different rounds of peptide stimulation with the similar results (FIG. 17A).
The BFY3 peptide pools were deconvoluted and studied in IFN-γ ELISPOT assays. Stimulation was performed as described earlier for the other antigens described. After 4 rounds of stimulation, the T cells from each culture were harvested and subjected to ELISPOT analysis for IFN-γ production with each individual peptide in each pool. FIG. 17B illustrates individual peptide reactivity for each specific pool.

HLA-A*0201 human T cells = test: IFN-γ ELISPOT of human T cells activated with BFA5/NYBR-1 peptide pools and single peptides; assay type: cell-based; settings: for BFA5 peptides eliciting high IFN-γ release (>200 spots/100,000 cells): listing = result; for IFN-γ secretion in T cells from both donors: donors AP10 and AP31
Experimental: A library of 100 peptides from the BFA5/NYBR-1 coding sequence that are predicted to be medium to high binders to HLA-A*0201 were designed using Rammensee and Parker algorithms. The library was sub-divided into 10 pools of ten peptides (see Table XI), and each pool was used to activate 10 different T cell cultures after pulsing peptides on to mature autologous dendritic cells.
ELISPOT analysis was performed on human T-cell cultures activated through four rounds of stimulation with each pool of BFA5 peptides. In FIG. 13A, the numbers under the X-axis indicate the number of each peptide pool (1-10). Reactivity against a CMV pp65 peptide, and a Flu matrix peptide were used as positive controls for T-cell activation in the experiments. Each experiment was performed with PBMC and dendritic cells from a single HLA-A*0201^+ donor designated as “AP10”. […] Similar results were obtained for both BFA4 and BFA5/NYBR-1 with a different HLA-A*0201. […] Cultures having a reading of 600 spots have more than this number of spots.
A large number of the BFA5 peptide pools of are reactive as shown by the high levels of IFN-γ production (FIG. 13A). Each reactive peptide pool was then separated into individual peptides and analyzed for immunogenicity using ELISPOT analysis to isolate single reactive BFA5 peptides. […] Similar results were obtained in two independent PBMC culture experiments.

peptide-loaded T2 cells = test: 51Cr-release CTL assay with BFA5 peptide-activated human T cells; assay type: cell-based; settings: for BFA5 peptides inducing CTL lysis of pulsed cells: Donor AP10, listing = result; for CTL activity in T cells from both donors: donors AP10 and AP31
Experimental: In addition to ELISPOT analysis, human T cells activated by BFA5 peptides were assayed to determine their ability to function as CTL. The cells were activated using peptide-pulsed dendritic cells followed by CD40 ligand-activated B cells (5 rounds of stimulation). The experiment shown was performed with isolated PBMC from HLA-A*0201^+ donor AP31. Isolated T cells were tested in ^51Cr-release assays using peptide-loaded T2 cells. The % specific lysis at a 10:1, 5:1, and 1:1 T-cell to target ratio is shown for T2 cells pulsed with either pools of BFA5/NYBR-1 peptides or with individual peptides. […] CTL activity (percent specific lysis) induced by the control HIV peptide was generally <10%. Similar results were obtained with another PBMC donor expressing HLA-A*0201 (AP10). […]

BFA4 = test: Rabbit antibody titers after immunization with BFA4 22-mer peptides; assay type: in vivo
From the text: For monitoring purposes, rabbit anti-BFA4 polyclonal antibodies were generated. Six peptides (22-mers) were designed and synthesized to elicit antibody response to BFA4, as shown below:
Rabbits were immunized with the peptides, serum was isolated, and the following antibody titers were observed: […]

[2] = system: targets pulsed with corresponding peptide pools; test: CTL killing of targets pulsed with BFY3 peptide pools or peptides; assay type: cell-based, human; settings: for Peptides eliciting CTL activity (peptide pulsed targets): BFY3 nonamer peptides, listing = result; for recognition of single peptides by CTL: BFY3 peptides, peptide-pulsed targets
Experimental: (§1) In addition to ELISPOT analysis, human T cells activated by BFY3 peptides were assayed for reactivity. Ten pools of peptides consisting often peptides per pool used to generate CTL. These 10 groups of effectors used to kill targets pulsed with corresponding peptide pools. […]

[3] = system: peptide-loaded human T2 lymphoma cell targets; test: CTL killing of BFA4 peptide-pulsed target cells; assay type: cell-based; settings: single BFA4 peptides, listing = result
[4] = system: CosA2 cells transfected with BFY3; test: CTL killing of BFY3-transfected cells; assay type: cell-based; settings: CTL generated from BFY3 peptide pools
Experimental: as §1

[5] = first-listed rabbit of the pair
[6] = second-listed rabbit of the pair

## NLFGGVVNP [CLP 3351]
[1]
  Peptides eliciting strong IFN-γ ELISPOT activity: NLFGGVVNP

## ATDGMKVSI [CLP 3054]
HLA-A*0201 human T cells; Donor AP10
  BFA5 peptides eliciting high IFN-γ release (>200 spots/100,000 cells): ATCGMKVSI
peptide-loaded T2 cells
  BFA5 peptides inducing CTL lysis of pulsed cells: ATCGMKVSI

## NGEQIIRRRTRKRLNPEALQAE [CLP2593]
BFA4; [5]
  Titer (Bleed 2): 3200000
  Titer (Final Bleed): 2560000
BFA4; [6]
  Titer (Bleed 2): 51200
  Titer (Final Bleed): 160000

## MVRKKNPPLRNVASEGEGQILE [CLP2589]
BFA4; [5]
  Titer (Bleed 2): 800000
  Titer (Final Bleed): 2560000, 2560000
BFA4; [6]
  Titer (Bleed 2): 1600000
  Titer (Final Bleed): 2560000, 2560000

## SHGFGSPAV [CLP 3407]
[1]
  Peptides eliciting strong IFN-γ ELISPOT activity: SHGFGSPAV

## LMDMQTFKA [CLP 2983]
HLA-A*0201 human T cells
  IFN-γ secretion in T cells from both donors: induce
peptide-loaded T2 cells
  CTL activity in T cells from both donors: induce

## HLARDFGYV [CLP 3387]
[2]
  Peptides eliciting CTL activity (peptide pulsed targets): HLARDFGYV
  recognition of single peptides by CTL: strongly recognized
[1]
  Peptides eliciting strong IFN-γ ELISPOT activity: HLARDFGYV

## FTTPDVDVL [CLP 2468]
[3]
  Strong CTL Killing (listed as highly immunoreactive peptide): FTTPDVDVL

## GLHRNNAQV [CLP 2520]
[3]
  Strong CTL Killing (listed as highly immunoreactive peptide): GLHRNNAQV

## ELCSVRLTL [CLP 3050]
HLA-A*0201 human T cells
  IFN-γ secretion in T cells from both donors: induce
peptide-loaded T2 cells
  CTL activity in T cells from both donors: induce

## SCLTHFNLI [CLP 3403]
[1]
  Peptides eliciting strong IFN-γ ELISPOT activity: SCLTHFNLI

## MLAFSFPAA [CLP 2427]
[3]
  Strong CTL Killing (listed as highly immunoreactive peptide): MLAFSFPAA

## YLLHENQML [CLP 2997]
HLA-A*0201 human T cells; Donor AP10
  BFA5 peptides eliciting high IFN-γ release (>200 spots/100,000 cells): YLLHENCML
HLA-A*0201 human T cells; Donor AP31
  BFA5 peptides eliciting high IFN-γ release (>200 spots/100,000 cells): YLLHENCML
peptide-loaded T2 cells
  BFA5 peptides inducing CTL lysis of pulsed cells: YLLHENCML

## MLWKLTDNI [CLP 3320]
[4]
  killing of CosA2 cells transfected with BFY3 by CTL: responsible for this cytotoxicity
[2]
  Peptides eliciting CTL activity (peptide pulsed targets): MLWKLTDNI
  recognition of single peptides by CTL: strongly recognized
[1]
  Peptides eliciting strong IFN-γ ELISPOT activity: MLWKLTDNI

## RNMLAFSFP [CLP 2425]
[3]
  Strong CTL Killing (listed as highly immunoreactive peptide): RNMLAFSFP

## HAIEEVPHV [CLP 3344]
[4]
  killing of CosA2 cells transfected with BFY3 by CTL: responsible for this cytotoxicity
[2]
  Peptides eliciting CTL activity (peptide pulsed targets): HAIEEVPHV
  recognition of single peptides by CTL: strongly recognized
[1]
  Peptides eliciting strong IFN-γ ELISPOT activity: HAIEEVPHV

## ASLGLLTPV [CLP 2482]
[3]
  Strong CTL Killing (listed as highly immunoreactive peptide): ASLGLLTPV

## ILSVVAKLL [CLP 3011]
HLA-A*0201 human T cells
  IFN-γ secretion in T cells from both donors: induce
peptide-loaded T2 cells
  CTL activity in T cells from both donors: induce

## SLPHAIEEV [CLP 3343]
[1]
  Peptides eliciting strong IFN-γ ELISPOT activity: SLPHAIEEV

## RLNPEALQA [CLP 2499]
[3]
  Strong CTL Killing (listed as highly immunoreactive peptide): RLNPEALQA
